Measurements reported in the METLIN SMRT retention time set (Domingo-Almenara et al. 2019).

Experiment: gradient 5% acetonitrile 3 min, to 50% in 2 min, to 85% in 15 min, held 3 min, 100 µL/min
Conditions: column: Zorbax Extend-C18 2.1 x 50 mm; eluents: water / acetonitrile, 0.1% formic acid
Method in brief: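 Pure standards were analyzed in mixtures of ~100 molecules using HPLC coupled to a quadrupole time-of-flight mass spectrometer, in both positive and negative ionization mode. Separation used a Zorbax Extend-C18 column (2.1 × 50 mm, 1.8 μm) at 100 μL/min, with water and acetonitrile each containing 0.1% formic acid. Dead and dwell volumes were 40 μL and 900 μL, and data were collected over 3 months. Retention time was read from computationally picked adduct peaks, each inspected manually.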

Row | Compound | RP-LC retention time
1 | Cc1ccc(NS(=O)(=O)c2cn(C(C)C)c3ncccc23)cc1F | 861 s
2 | CC(C)CNC(=O)N1CCCC(CCc2nnc(-c3cnccn3)o2)C1 (stereo not drawn) | 697 s
3 | O=c1c(=O)n(-c2ccc(Cl)cc2)ccn1Cc1nc(-c2ccccc2)no1 | 860 s
4 | O=c1c2nc(-c3ccc4c(c3)OCO4)cn2ccn1-c1ccc(Cl)cc1 | 834 s
5 | O=C(c1cc(-c2ccncc2)n[nH]1)N1CCN(C(=O)C2CCCC2)CC1 | 588 s
6 | Cc1ccc(Nc2nc(-c3ccc(C)cc3)c(C)s2)cc1 | 1180 s
7 | COc1cccc(CN2CC(N(C3CCOCC3)S(C)(=O)=O)C2)c1 | 614 s
8 | CCCn1ccc2sc(C)c(C(=O)NC3CCCC3)c2c1=O | 760 s
9 | Cc1ccccc1C(=O)Nc1c(-c2ccccc2)nc2ccccn12 | 634 s
10 | Cc1cc(C)c(S(=O)(=O)N2CCC(c3cc4n(n3)CCCN(C)C4=O)CC2)cc1C | 888 s
11 | COCc1nc(-c2ccc(OC3CCN(Cc4ccc(C(F)(F)F)cc4)C3)cc2)no1 (stereo not drawn) | 751 s
12 | CCn1c(CC2CCN(C(=O)NCC(=O)OC)C2)nc2cccnc21 (stereo not drawn) | 534 s
13 | COc1ccccc1-c1nc2cnccn2c1NCCC(=O)N(C)C | 596 s
14 | COC(=O)CNC(=O)N1CCCC1c1ccccc1Cl (stereo not drawn) | 754 s
15 | CCOc1cccc(CN2C[C@@H]3C(=O)N(CCOC)C(=O)[C@@H]3C2)c1 | 578 s
16 | COc1cccc(C(=O)NCCCc2ccc(N(C)C)cc2)c1OC | 574 s
17 | CC(C)CN(CC(C)C)c1nc(-c2ccccc2)nc2ccccc12 | 951 s
18 | Cc1nc(C2(C)CCN(S(=O)(=O)c3c(C)c(C)cc(C)c3C)CC2)no1 | 1140 s
19 | COc1ccccc1NC(=O)Cn1cnc2nc(N3CCCC(C(=O)NC(C)C)C3)sc2c1=O (stereo not drawn) | 688 s
20 | COc1ccc(C2=C(C)C(N3CCC(C(=O)NC4CCCC4)CC3)=NS2(=O)=O)cc1 | 780 s
21 | CCOC(=O)C1=C(CN2CCN(C(C)CC)CC2)NC(=O)NC1c1ccccc1 (stereo not drawn) | 625 s
22 | COc1ccc(OC)c(NC(=O)C2C(=O)NC3(C)CC2c2ccccc2O3)c1 (stereo not drawn) | 875 s
23 | O=C(CCC(=O)OCc1ccc(Br)cc1)Nc1nc(-c2ccccc2)cs1 | 1130 s
24 | CCN1CCN(C(=O)c2sc(-c3cn(C(C)C)c4ncccc34)nc2C)CC1 | 612 s

Now from value to compound:

Row | RP-LC retention time | Compound
25 | 672 s | CC1=C(C(=O)Nc2ccccc2F)C(c2ccccc2Br)NC(=O)N1 (stereo not drawn)
26 | 614 s | CCOc1ccc(NC(=O)c2cn3c(n2)CCCC3)cc1
27 | 766 s | COc1ccc(C(=O)N2CCCn3nc(-c4cccs4)cc3C2)cn1
28 | 966 s | COc1ccc(-c2ncc3c(n2)CCN(C(=O)c2c(F)cccc2Cl)C3)cc1
29 | 606 s | O=C(CCCc1nc2cccnc2n1Cc1ccc(F)cc1)N1CCN(c2ccccn2)CC1
30 | 665 s | O=C(NC1CCN(Cc2ccccc2)CC1)c1ccc2nc3ccc(Cl)cc3c(=O)n2c1
31 | 680 s | O=C(Nc1ccc2nncn2c1)Nc1ccc(F)cc1F
32 | 1260 s | Cn1nccc1-c1cccc(-c2noc(-c3cccc(Cl)c3)n2)c1
33 | 880 s | Cc1nc(-c2ccccc2F)sc1C(=O)N1CCCC1
34 | 656 s | CNC(=O)c1nn(C)c2c1C(C)(C)Cc1cnc(Nc3ccc(N4CCN(C)CC4)cc3)nc1-2
35 | 859 s | O=C(NC1CCCc2c1[nH]c1ccc(Cl)cc21)c1ccncc1 (stereo not drawn)
36 | 621 s | COc1ccc(Cl)c2c(=O)c3c([nH]c12)CCN(CC(=O)Nc1c(C)cccc1C)C3
37 | 611 s | O=C(O)c1cncc(NS(=O)(=O)c2ccc3c(c2)OCCO3)c1
38 | 843 s | N#Cc1ccc(Cl)cc1NC(=O)c1ccc(N2CCOCC2)nn1
